# From US20140322344A1, “VACCINE PREPARATION FOR CANCER TREATMENT” (priority 2011, published 2014)
# Key:
# [1] = test system: CD8-positive killer T cells and CD4-positive helper T cells specific to MAGE-A4 epitopes; assay: Induction of antigen-specific T cells in immunized mice, spleen cells, intracellular cytokine staining (MAGE-A4 peptides); assay type: in vivo, BALB/c mice; conditions: s.c. twice at one week intervals, FIG. 1
# Description: […] For administration, they were subcutaneously injected into the backs of the mice twice at one week intervals. For one dose of the hydrophobized polysaccharide-synthetic long peptide complex, a dosage corresponding to 0.1 mg of the synthetic long peptide complex was administered. Either the CpG oligo DNA or the poly-IC RNA as the immunopotentiating agent was subcutaneously injected at a dose of 0.05 mg proximal to the administration site of the hydrophobized polysaccharide-synthetic long peptide.
# One week after the final administration, spleen cells were isolated from the treated mice in the following manner. The spleen was isolated from the mouse and washed in RPMI1640 medium to remove blood. The spleen was ground using a slide glass, and then the free cells were collected in RPMI1640 medium. After centrifugation (400×g, 5 min., 4° C.), the supernatant was removed, to which 2 mL of ACK solution was added to treat the cells for 1 minute. 18 mL of RPMI1640 medium was added and centrifugation (400×g, 5 min., 4° C.) was carried out. […] After the number of the cells was counted, the cells were suspended in RPMI1640 medium containing 10% fetal bovine serum (FBS) so that the cell concentration was 1×10^7 cells/mL. […]
# The cells were analyzed with a flow cytometer (FACS Canto II, BD Biosciences Company) using the associated analysis software (FACSDiva).
# [2] = test system: mouse colon cancer cells CT 26 into which the MAGE-A4 gene was stably introduced; assay: Tumor rejection test, CT26/MAGE-A4; assay type: in vivo, BALB/c mice; conditions: co-administered s.c. with CpG oligo DNA 7 days before tumor implantation; p<0.0001; FIG. 7
# Description: A mouse colon cancer cell CT26 cell line into which the MAGE-A4 gene was stably introduced or a mouse fibrosarcoma CMS5a cell line which expresses mERK2 was subcutaneously implanted in the following manner. The CT26 cell line or CMS5a cell line, which had been cultured in a T75 flask (Nunc Co., Ltd.), was washed with PBS; then the cells were removed with PBS containing 0.5% trypsin and collected in RPMI1640 medium containing 10% FBS. After centrifugation (400×g, 5 min., 4° C.), the supernatant was removed, washed twice with RPMI1640 medium, then re-suspended in RPMI1640 medium at a concentration of 1×10^6 cells/100 μL, and subcutaneously implanted into BALB/c mice in an amount of 100 μL/individual. Subsequently, their tumor areas were measured over time. A comparison of the data in the tumor rejection test was performed according to Student's t-test using MS Excel (Microsoft).
substance,measurement,setting,value
"MAGE-A4 p264:40: synthetic long peptide, 40 aa, from MAGE-A4, SEQ ID NO: 1: GSNPARYEFLWGPRALAETSYVKVLEHVVRVNARVRIAYP (Human; MAGE-A4 p26440)",induction of killer T cells and helper T cells specific to the peptide,"[1]; administered alone, no immunopotentiating agent",are not induced
same,induction of antigen-specific killer T cells and helper T cells,[1]; co-administered with CpG oligo DNA,the intended T cells are not induced
same,tumor growth inhibition as compared to PBS administration group,[2],significant inhibition
